# Read-outs that look alike come from different tables or passages of the source.
# What was measured:
# [1] = tested on: intracellular Ca^2+ stores; assay: Ca2+ release from intracellular stores (FURA-2AM loaded cells); format: cell-based; parameters: key to Ca^2+ (Ca^2+ release from intracellular stores): a “+” denotes release; a “+/−” denotes inconclusive
# Description: As a non-limiting example, compounds 1272 and 1273 (set forth in Table 1) were synthesized starting from 3-bromoaniline, which upon condensation with hydroxylamine and chloral hydrate followed by concentrated sulfuric acid yielded an inseparable regioisomeric mixture of 4- and 6-bromo isatins. The addition of the two phenyl groups to the three position of the oxindole allowed easy chromatographic separation of the 4- and 6-bromo-3,3-diphenyloxindoles 1272 and 1273. Table 1 sets forth biological data for diaryloxindole compounds including, but not limited to 1272 and 1273. For Tables 1-14, Ca^2+ refers to Ca^2+ release from intracellular stores where a “+” denotes release and a “+/−” denotes inconclusive; eIF2α-P refers to phosphorylation of eIF2α measured by Western blot; SRB refers to the inhibitory concentration to reduce cell growth by 50% (IC50) for growth inhibition of A549 lung cancer cells; and n.d. is not determined.
# Without intending to be bound by theory, the mechanism of action of translation initiation inhibitors is set forth in FIG. 1, and includes the depletion (complete or partial depletion) of intracellular calcium (Ca^2+) stores and phosphorylation of eIF2α. Compounds synthesized using the approaches described herein were screened for their ability to partially deplete intracellular Ca^2+ stores using FURA-2AM loaded cells (Benzaquen et al. (1995) Nature Medicine, 1:534, incorporated herein by reference in its entirety for all purposes). A limited subset of compounds were further screened for their ability to deplete endoplasmic reticulum (ER) Ca^2+. The Ca^2+ content of the ER was monitored using ER-targeted, Ca^2+ sensitive, recombinant proteins. These recombinant proteins emitted light by fluorescent resonance energy transfer (FRET) as a function of the Ca^2+ content of the medium. Such assays are previously described (Miyawaki, A.; Mizuno, H.; Llopis, J.; Tsien, R. Y.; Jalink, K. Cameleons as cytosolic and intra-organellar calcium probes, Oxford University Press: Oxford, London, 2001; pp 3-16, incorporated herein by reference in its entirety for all purposes). Compounds that depleted Ca^2+ were further evaluated for their ability to phosphorylate eIF2α. eIF2α phosphorylation was measured by Western blot analysis using the phospho-specific anti-eIF2α antibody, as previously described (Aktas et al. (1998) Proc. Natl. Acad. Sci. USA, 95:8280, incorporated herein by reference in its entirety for all purposes).
# A549 lung cancer cells = assay: SRB growth inhibition of A549 lung cancer cells; format: cell-based, human; conditions: A549 lung cancer cells, unit inferred, read-out: SRB (IC50 for growth inhibition of A549 lung cancer cells)
# Description: As a non-limiting example, compounds 1272 and 1273 (set forth in Table 1) were synthesized starting from 3-bromoaniline, which upon condensation with hydroxylamine and chloral hydrate followed by concentrated sulfuric acid yielded an inseparable regioisomeric mixture of 4- and 6-bromo isatins. The addition of the two phenyl groups to the three position of the oxindole allowed easy chromatographic separation of the 4- and 6-bromo-3,3-diphenyloxindoles 1272 and 1273. Table 1 sets forth biological data for diaryloxindole compounds including, but not limited to 1272 and 1273. For Tables 1-14, Ca^2+ refers to Ca^2+ release from intracellular stores where a “+” denotes release and a “+/−” denotes inconclusive; eIF2α-P refers to phosphorylation of eIF2α measured by Western blot; SRB refers to the inhibitory concentration to reduce cell growth by 50% (IC50) for growth inhibition of A549 lung cancer cells; and n.d. is not determined. […]
Structure (SMILES),Ca^2+ (Ca^2+ release from intracellular stores) [1],IC50 (A549 lung cancer cells) [µM],IC50 (A549 lung cancer cells; Homo sapiens) [µM]
COc1ccc(C2(c3ccc(OC)cc3O)C(=O)Nc3ccccc32)c(O)c1 [Compound 1163],+,10,–
COC(=O)C(N)Cc1ccc(O)c(C2(c3ccccc3)C(=O)Nc3ccccc32)c1 (stereo not drawn) [Compound 1171],+,–,–
CC(C)(C)c1ccc(O)c(C2(c3ccccc3)CNc3ccccc32)c1 (stereo not drawn) [Compound 1182],+,12,–
CC(C)(C)c1ccc(O)c(C2(c3cc(C(C)(C)C)ccc3O)C(=O)Nc3ccccc32)c1 [Compound 1195],+,3,–
CC(C)(C)c1ccc(O)c(C2(c3ccccc3)C(=O)Nc3c(Br)cccc32)c1 (stereo not drawn) [Compound 1196],+,3,–
CN(C)CCCCOc1cccc(C2(c3ccccc3)C(=O)Nc3ccccc32)c1O (stereo not drawn) [Compound 1199],+,> 20,–
[N-]=[N+]=NCCCCOc1cccc(C2(c3ccccc3)C(=O)Nc3ccccc32)c1O (stereo not drawn) [Compound 1200],+,3,–
O=C1Nc2ccccc2C1(c1ccccc1)c1cc(O)ccc1O (stereo not drawn) [Compound 1201],+,–,–
C=CCCCOc1ccc(O)c(C2(c3ccccc3)C(=O)Nc3ccccc32)c1 (stereo not drawn) [Compound 1202],+,6,–
O=C1Nc2ccccc2C1(c1ccccc1)c1cc(OCCCCBr)ccc1O (stereo not drawn) [Compound 1203],+,8,–
CN(C)CCCCOc1ccc(O)c(C2(c3ccccc3)C(=O)Nc3ccccc32)c1 (stereo not drawn) [Compound 1216],+/−,> 20,–
[N-]=[N+]=NCCCCOc1ccc(O)c(C2(c3ccccc3)C(=O)Nc3ccccc32)c1 (stereo not drawn) [Compound 1219],+,5,–
O=C1NC(=O)C(Cc2ccc(O)c(C3(c4ccccc4)C(=O)Nc4ccccc43)c2)S1 (stereo not drawn) [Compound 1220],+/−,16,–
CC(C)(C)c1ccc(O)c(C2(c3cccs3)C(=O)Nc3ccccc32)c1 (stereo not drawn) [Compound 1222],+,9,–
C=CCOCN1C(=O)C(c2ccccc2)(c2cc(C(C)(C)C)ccc2O)c2ccccc21 (stereo not drawn) [Compound 1227],+,3,–
NCCCCOc1ccc(O)c(C2(c3ccccc3)C(=O)Nc3ccccc32)c1 (stereo not drawn) [Compound 1228],+,5,–
CC(C)(C)c1cccc(C2(c3ccc(O)cc3)C(=O)Nc3ccccc32)c1 (stereo not drawn) [Compound 1232],+,4,–
CC(C)(C)c1ccc(O)c(C2(c3ccccc3)C(=O)Nc3ccc(NS(=O)(=O)c4cccc5ccccc45)cc32)c1 (stereo not drawn) [Compound 1238],+/−,3,–
O=C1Nc2ccccc2C1(c1ccccc1)c1cc(C(F)(F)F)ccc1O (stereo not drawn) [Compound 1243],–,> 20,–
CC(C)(C)c1ccc(O)c(C2(c3ccccc3)C(=O)N(c3ccccc3)c3ccccc32)c1 (stereo not drawn) [Compound 1255],–,4,–
O=C1Nc2ccccc2C1(c1ccc(O)cc1)c1ccc(O)cc1 [Compound 1259],–,> 20,–
O=C1Nc2ccccc2C1(c1ccc(O)cc1)c1ccc(Oc2ccccc2)cc1 (stereo not drawn) [Compound 1260],+,12,–
O=C1Nc2ccccc2C1(c1ccc(O)cc1)c1ccc(-c2ccccc2)cc1 (stereo not drawn) [Compound 1261],+,10,–
CN(C)c1ccc(C2(c3ccc(O)cc3)C(=O)Nc3ccccc32)cc1 (stereo not drawn) [Compound 1262],+/−,10,–
O=C1Nc2ccc(OC(F)(F)F)cc2C1(c1ccccc1)c1ccccc1 [Compound 1263],+,8,–
CC(C)(C)c1ccc2c(c1)C1(c3ccccc3)C(=O)N(C/C=C\CO2)c2ccccc21 (stereo not drawn) [Compound 1291],–,–,> 20

Structure (SMILES),Ca^2+ (Ca^2+ release from intracellular stores) [1],IC50 (A549 lung cancer cells) [µM],IC50 (A549 lung cancer cells; Homo sapiens) [µM]
CCCc1ccc(C2(c3ccccc3)C(=O)Nc3ccccc32)cc1 (stereo not drawn) [Compound 1296],+,11,–
O=C1N(c2ccccc2)c2ccccc2C1(c1ccccc1)c1ccccc1 [Compound 1300],–,8,–
CN1C(=O)C(c2ccccc2)(c2ccccc2)c2ccccc21 [Compound 1301],+,–,–
O=C1N(Cc2ccc(Cl)cc2)c2ccccc2C1(c1ccccc1)c1ccccc1 [Compound 1302],–,14,–
C=CCN1C(=O)C(c2ccccc2)(c2ccccc2)c2ccccc21 [Compound 1303],+/−,15,–
O=C1N(CO)c2ccccc2C1(c1ccccc1)c1ccccc1 [Compound 1304],–,10,–
CCCCOc1ccc(S(=O)(=O)N2C(=O)C(c3ccccc3)(c3ccccc3)c3ccccc32)cc1 [Compound 1306],–,> 20,–
O=C1N(S(=O)(=O)c2ccc(Oc3ccccc3)cc2)c2ccccc2C1(c1ccccc1)c1ccccc1 [Compound 1307],–,> 20,–
CC(=O)Nc1ccc(S(=O)(=O)N2C(=O)C(c3ccccc3)(c3ccccc3)c3ccccc32)cc1 [Compound 1308],–,11,–
CC(C)(C)c1ccc(S(=O)(=O)N2C(=O)C(c3ccccc3)(c3ccccc3)c3ccccc32)cc1 [Compound 1311],–,11,–
CC(C)(C)c1ccc(O)c(C2(c3ccccc3)C(=O)Nc3ccc(F)cc32)c1 (stereo not drawn) [Compound 1312],+,4,–
Cc1cc2c(c(C3(c4ccccc4)C(=O)Nc4ccccc43)c1)NCC2 (stereo not drawn) [Compound 1313],+,–,> 20
O=C1Nc2ccccc2C1(c1cccc(Cl)c1)n1ccnc1 (stereo not drawn) [Compound 1314],+,> 20,–
O=C1Nc2ccccc2C1(c1ccccc1)n1ccnc1 (stereo not drawn) [Compound 1315],–,> 20,–
O=C1Nc2ccccc2C1(c1cccc(F)c1)n1ccnc1 (stereo not drawn) [Compound 1316],–,> 20,–
Cc1cccc(C2(n3ccnc3)C(=O)Nc3ccccc32)c1 (stereo not drawn) [Compound 1317],–,> 20,–
CC(C)(C)c1cccc(C2(n3ccnc3)C(=O)Nc3ccccc32)c1 (stereo not drawn) [Compound 1318],+,2,–
CC(C)(C)c1ccc(OS(=O)(=O)CC23CCC(CC2=O)C3(C)C)c(C2(c3ccccc3)C(=O)Nc3ccccc32)c1 (stereo not drawn) [Compound 1319],+,2,–
CC(C)(C)c1ccc(OCC#N)c(C2(c3ccccc3)C(=O)N(CC#N)c3ccccc32)c1 (stereo not drawn) [Compound 1320],–,–,4
CC(C)(C)c1ccc(OC(=O)CCCCCCC(=O)O)c(C2(c3ccccc3)C(=O)Nc3ccccc32)c1 (stereo not drawn) [Compound 1321],+,16,–
CC(C)(C)c1ccc(OC(=O)CCCC(=O)NO)c(C2(c3ccccc3)C(=O)Nc3ccccc32)c1 (stereo not drawn) [Compound 1323],+,3,–
COc1ccc(C2(c3ccccc3)C(=O)Nc3ccccc32)c(CC(=O)O)c1 (stereo not drawn) [Compound 1327],–,> 20,–
CC(C)(C)c1ccc(O)c(C2(c3ccccc3)C(=O)N(CC(=O)O)c3ccccc32)c1 (stereo not drawn) [Compound 1339],–,> 20,–
Cc1cc(C2(c3ccccc3)C(=O)Nc3c(C(=O)O)cccc32)c(NS(=O)(=O)c2ccc(C(C)(C)C)cc2)cc1O (stereo not drawn) [Compound 1431],–,> 20,–
CC(=O)Nc1cc(O)c(C)cc1C1(c2ccccc2)C(=O)Nc2ccccc21 (stereo not drawn) [Compound 1639],–,> 20,–
Cc1cc(O)c(NS(=O)(=O)c2ccc(C(C)(C)C)cc2)cc1C1(c2ccccc2)C(=O)Nc2ccccc21 (stereo not drawn) [Compound 1648],+,–,–

# — US8044089B2, “3-3-di-substituted-oxindoles as inhibitors of translation initiation” (President and Fellows of Harvard College, priority 2004, dated 2011)
